Experimental data taken from patent publication US8680012B2, “4-phenyl-pyrane-3,5-diones,4-phenyl-thiopyrane-3,6-diones and cyclohexanetriones as novel herbicides” (Syngenta Crop Protection LLC, priority 2006, dated 2014).

Legend:
Assay type in all cases: in vivo
Avena fatua (AVEFA) [1] = test: Example A pre-emergence herbicidal activity, glasshouse pot test; conditions: 480 h, evaluated 20 days after spraying, read-out: Pre-emergence activity AVEFA (100=total damage to plant; 0=no damage to plant); for pest or weed control at 500 g/ha: rate 500 g/ha; for pest or weed control at 250 g/ha: rate 250 g/ha
Procedure: (§1) Seeds of a variety of test species were sown in standard soil in pots. After cultivation for one day (pre-emergence) or after 10 days cultivation (post-emergence) under controlled conditions in a glasshouse, the plants were sprayed with an aqueous spray solution derived from the formulation of the technical active ingredient in 0.6 ml acetone and 45 ml formulation solution containing 10.6% Emulsogen EL (Registry number 61791-12-6), 42.2% N-methylpyrrolidone, 42.2% dipropylene glycol monomethyl ether (Registry number 34590-94-8) and 0.2% X-77 (Registry number 11097-66-8). The test plants were then grown in a greenhouse under optimum conditions until, 15 days later for post-emergence and 20 days for pre-emergence, the test was evaluated (100=total damage to plant; 0=no damage to plant).
(§2) Alopecurus myosuroides (ALOMY), Avena fatua (AVEFA), Lolium perenne (LOLPE), Setaria faberi (SETFA), Digitaria sanguinalis (DIGSA), Echinochloa crus-galli (ECHCG)

Setaria faberi (SETFA) [2] = test: as above; conditions: 480 h, evaluated 20 days after spraying, read-out: Pre-emergence activity SETFA (100=total damage to plant; 0=no damage to plant); for pest or weed control at 500 g/ha: rate 500 g/ha; for pest or weed control at 250 g/ha: rate 250 g/ha
Procedure: as §1, §2

[3] = tested on: Echinochloa crus-galli (ECHCG); test: as above; conditions: 480 h, evaluated 20 days after spraying, read-out: Pre-emergence activity ECHCG (100=total damage to plant; 0=no damage to plant); for pest or weed control at 500 g/ha: rate 500 g/ha; for pest or weed control at 250 g/ha: rate 250 g/ha
Procedure: as §1, §2

Lolium perenne (LOLPE) [4] = test: as above; conditions: 480 h, evaluated 20 days after spraying, read-out: Pre-emergence activity LOLPE (100=total damage to plant; 0=no damage to plant); for pest or weed control at 500 g/ha: rate 500 g/ha; for pest or weed control at 250 g/ha: rate 250 g/ha
Procedure: as §1, §2

[5] = tested on: Alopecurus myosuroides (ALOMY); test: as above; conditions: 480 h, evaluated 20 days after spraying, read-out: Pre-emergence activity ALOMY (100=total damage to plant; 0=no damage to plant); for pest or weed control at 500 g/ha: rate 500 g/ha; for pest or weed control at 250 g/ha: rate 250 g/ha
Procedure: as §1, §2

[6] = tested on: Digitaria sanguinalis (DIGSA); test: as above; conditions: 480 h, evaluated 20 days after spraying, read-out: Pre-emergence activity DIGSA (100=total damage to plant; 0=no damage to plant); for pest or weed control at 500 g/ha: rate 500 g/ha; for pest or weed control at 250 g/ha: rate 250 g/ha
Procedure: as §1, §2

Avena fatua (AVEFA) [7] = test: Example A post-emergence herbicidal activity, glasshouse pot test; conditions: 360 h, rate 125 g/ha, evaluated 15 days after spraying, read-out: Post-emergence activity AVEFA (100=total damage to plant; 0=no damage to plant)
Procedure: as §1, §2

Setaria faberi (SETFA) [8] = test: as above; conditions: 360 h, rate 125 g/ha, evaluated 15 days after spraying, read-out: Post-emergence activity SETFA (100=total damage to plant; 0=no damage to plant)
Procedure: as §1, §2

[9] = tested on: Echinochloa crus-galli (ECHCG); test: as above; conditions: 360 h, rate 125 g/ha, evaluated 15 days after spraying, read-out: Post-emergence activity ECHCG (100=total damage to plant; 0=no damage to plant)
Procedure: as §1, §2

Lolium perenne (LOLPE) [10] = test: as above; conditions: 360 h, rate 125 g/ha, evaluated 15 days after spraying, read-out: Post-emergence activity LOLPE (100=total damage to plant; 0=no damage to plant)
Procedure: as §1, §2

[11] = tested on: Alopecurus myosuroides (ALOMY); test: as above; conditions: 360 h, rate 125 g/ha, evaluated 15 days after spraying, read-out: Post-emergence activity ALOMY (100=total damage to plant; 0=no damage to plant)
Procedure: as §1, §2

[12] = tested on: Digitaria sanguinalis (DIGSA); test: as above; conditions: 360 h, rate 125 g/ha, evaluated 15 days after spraying, read-out: Post-emergence activity DIGSA (100=total damage to plant; 0=no damage to plant)
Procedure: as §1, §2

Cc1ccc(-c2ccc(Cl)cc2)cc1C1=C(O)COCC1=O [Compound A-3]
pest or weed control at 500 g/ha (Avena fatua (AVEFA) [1]): 20%
pest or weed control at 500 g/ha (Setaria faberi (SETFA) [2]): 50%
pest or weed control at 500 g/ha [3]: 70%
pest or weed control at 500 g/ha (Lolium perenne (LOLPE) [4]): 20%
pest or weed control at 500 g/ha [5]: 30%
pest or weed control at 500 g/ha [6]: 70%
pest or weed control at 125 g/ha (Avena fatua (AVEFA) [7]): 0%
pest or weed control at 125 g/ha (Setaria faberi (SETFA) [8]): 60%
pest or weed control at 125 g/ha [9]: 70%
pest or weed control at 125 g/ha (Lolium perenne (LOLPE) [10]): 0%
pest or weed control at 125 g/ha [11]: 0%
pest or weed control at 125 g/ha [12]: 40%

Cc1ccc(-c2ccc(F)cc2)cc1C1=C(O)C(C)(C)OC(C)(C)C1=O [Compound A-9]
pest or weed control at 500 g/ha (Avena fatua (AVEFA) [1]): 30%
pest or weed control at 500 g/ha (Setaria faberi (SETFA) [2]): 60%
pest or weed control at 500 g/ha [3]: 50%
pest or weed control at 500 g/ha (Lolium perenne (LOLPE) [4]): 20%
pest or weed control at 500 g/ha [5]: 20%
pest or weed control at 500 g/ha [6]: 50%
pest or weed control at 125 g/ha (Avena fatua (AVEFA) [7]): 0%
pest or weed control at 125 g/ha (Setaria faberi (SETFA) [8]): 80%
pest or weed control at 125 g/ha [9]: 80%
pest or weed control at 125 g/ha (Lolium perenne (LOLPE) [10]): 30%
pest or weed control at 125 g/ha [11]: 50%
pest or weed control at 125 g/ha [12]: 80%

CCc1ccc(-c2ccc(Cl)c(F)c2)cc1C1=C(O)C(C)(C)OC(C)(C)C1=O [Compound A-43]
pest or weed control at 250 g/ha (Avena fatua (AVEFA) [1]): 90%
pest or weed control at 250 g/ha (Setaria faberi (SETFA) [2]): 100%
pest or weed control at 250 g/ha [3]: 100%
pest or weed control at 250 g/ha (Lolium perenne (LOLPE) [4]): 80%
pest or weed control at 250 g/ha [5]: 80%
pest or weed control at 250 g/ha [6]: 100%
pest or weed control at 125 g/ha (Avena fatua (AVEFA) [7]): 90%
pest or weed control at 125 g/ha (Setaria faberi (SETFA) [8]): 100%
pest or weed control at 125 g/ha [9]: 100%
pest or weed control at 125 g/ha (Lolium perenne (LOLPE) [10]): 80%
pest or weed control at 125 g/ha [11]: 80%
pest or weed control at 125 g/ha [12]: 100%

Cc1ccc(-c2ccc(Cl)c(F)c2)cc1C1=C(O)C(C)(C)OC(C)(C)C1=O [Compound A-47]
pest or weed control at 250 g/ha (Avena fatua (AVEFA) [1]): 20%
pest or weed control at 250 g/ha (Setaria faberi (SETFA) [2]): 60%
pest or weed control at 250 g/ha [3]: 70%
pest or weed control at 250 g/ha (Lolium perenne (LOLPE) [4]): 30%
pest or weed control at 250 g/ha [5]: 30%
pest or weed control at 250 g/ha [6]: 70%
pest or weed control at 125 g/ha (Avena fatua (AVEFA) [7]): 90%
pest or weed control at 125 g/ha (Setaria faberi (SETFA) [8]): 50%
pest or weed control at 125 g/ha [9]: 100%
pest or weed control at 125 g/ha (Lolium perenne (LOLPE) [10]): 70%
pest or weed control at 125 g/ha [11]: 90%
pest or weed control at 125 g/ha [12]: 80%

COC(=O)OC1=C(c2cc(-c3ccc(Cl)cc3)ccc2C)C(=O)C(C)(C)OC1 [Compound D-5]
pest or weed control at 500 g/ha (Avena fatua (AVEFA) [1]): 20%
pest or weed control at 500 g/ha (Setaria faberi (SETFA) [2]): 20%
pest or weed control at 500 g/ha [3]: 50%
pest or weed control at 500 g/ha (Lolium perenne (LOLPE) [4]): 0%
pest or weed control at 500 g/ha [5]: 0%
pest or weed control at 500 g/ha [6]: 60%
pest or weed control at 125 g/ha (Avena fatua (AVEFA) [7]): 40%
pest or weed control at 125 g/ha (Setaria faberi (SETFA) [8]): 70%
pest or weed control at 125 g/ha [9]: 60%
pest or weed control at 125 g/ha (Lolium perenne (LOLPE) [10]): 40%
pest or weed control at 125 g/ha [11]: 10%
pest or weed control at 125 g/ha [12]: 20%

Cc1ccc(-c2ccc(Cl)cc2)cc1C1=C(O)[C@@]2(C)CC[C@](C)(O2)C1=O [Compound A-40]
pest or weed control at 250 g/ha (Avena fatua (AVEFA) [1]): 10%
pest or weed control at 250 g/ha (Setaria faberi (SETFA) [2]): 70%
pest or weed control at 250 g/ha [3]: 70%
pest or weed control at 250 g/ha (Lolium perenne (LOLPE) [4]): 20%
pest or weed control at 250 g/ha [5]: 30%
pest or weed control at 250 g/ha [6]: 70%
pest or weed control at 125 g/ha (Avena fatua (AVEFA) [7]): 60%
pest or weed control at 125 g/ha (Setaria faberi (SETFA) [8]): 70%
pest or weed control at 125 g/ha [9]: 100%
pest or weed control at 125 g/ha (Lolium perenne (LOLPE) [10]): 60%
pest or weed control at 125 g/ha [11]: 70%
pest or weed control at 125 g/ha [12]: 70%
